This is an account of results in patent US20230312577A1, “DUAL KINASE-BROMODOMAIN INHIBITORS” (MONASH UNIVERSITY, priority 2020, published 2023).

Where only a bound is given, the exact number is not on record here.

For the test, the system named is OPM2 cells. Put plainly: Cell proliferation assay (ViaLight, cellular ATP). In kind it is cell-based. The note with it: Homo sapiens, OPM-2, 120 h, 5 days, 5 μM to 1 nM. How it is done:
OPM2 cells (1×10^3) were plated in a 96 well plate. Test compounds were added to cells at final concentrations ranging from 5 μM to 1 nM. They were incubated for 5 days before they were analysed using ViaLight luminescence-based proliferation assays which detect cellular ATP, as per the manufacturer's instructions. All samples were prepared in technical triplicates. Data analysis was performed in GraphPad Prism version 7.00 for Mac OS X, (GraphPad Software, San Diego California USA) in order to calculate the GI50.
`CC(=O)N1c2ccc(-c3ccc(C(=O)NCCCNC(=O)c4sc5c(N6CCOCC6)nc(-c6cnc(N)nc6)nc5c4C)cc3)cc2CC[C@@H]1C` [Cpd 041, (S)-N-(3-(4-(1-Acetyl-2-methyl-1,2,3,4-tetrahydroquinolin-6-yl)benzamido)propyl)-2-(2-aminopyrimidin-5-yl)-7-methyl-4-morpholinothieno[3,2-d]pyrimidine-6-carboxamide] yielded a concentration for 50% growth inhibition (GI50) of more than 500 nM.
In turn, `CC(=O)N1c2ccc(-c3ccc(CN(C)Cc4cc5nc(-c6cnc(N)nc6)nc(N6CCOCC6)c5s4)cc3)cc2CC[C@@H]1C` [Cpd 042, (S)-1-(6-(4-((((2-(2-Aminopyrimidin-5-yl)-4-morpholinothieno[3,2-d]pyrimidin-6-yl)methyl)(methyl)amino)methyl)phenyl)-2-methyl-3,4-dihydroquinolin-1(2H)-yl)ethan-1-one] gave a 50% growth inhibitory concentration (GI50) of more than 500 nM.
Molecule `CC(=O)N1c2ccc(-c3ccc(CN(C)Cc4sc5c(N6CCOCC6)nc(-c6cnc(N)nc6)nc5c4C)cc3)cc2CC[C@@H]1C` [Cpd 043, (S)-1-(6-(4-((((2-(2-aminopyrimidin-5-yl)-7-methyl-4-morpholinothieno[3,2-d]pyrimidin-6-yl)methyl)(methyl)amino)methyl)phenyl)-2-methyl-3,4-dihydroquinolin-1(2H)-yl)ethan-1-one] had a concentration for 50% growth inhibition (GI50) of more than 500 nM.
For the molecule `CC(=O)N1c2ccc(-c3ccc(CCNC(=O)c4cn5cc(-c6cnc(N)nc6)nc(N6CCOCC6)c5n4)cc3)cc2CC[C@@H]1C` [Cpd 044, (S)-N-(4-(1-acetyl-2-methyl-1,2,3,4-tetrahydroquinolin-6-yl)phenethyl)-6-(2-aminopyrimidin-5-yl)-8-morpholinoimidazo[1,2-a]pyrazine-2-carboxamide], the GI50 was 100 to 500 nM.
In turn, `CC(=O)N1c2ccc(-c3ccc(CCNC(=O)c4cc5nc(-c6cnc(N)nc6)nc(N6CCOCC6)c5s4)cc3)cc2CC[C@@H]1C` [Cpd 045, (S)-N-(4-(1-acetyl-2-methyl-1,2,3,4-tetrahydroquinolin-6-yl)phenethyl)-2-(2-aminopyrimidin-5-yl)-4-morpholinothieno[3,2-d]pyrimidine-6-carboxamide] had a GI50 not above 100 nM.
Regarding `CC(=O)N1c2ccc(-c3ccc(CCNC(=O)c4sc5c(N6CCOCC6)nc(-c6cnc(N)nc6)nc5c4C)cc3)cc2CC[C@@H]1C` [Cpd 046, (S)-N-(4-(1-acetyl-2-methyl-1,2,3,4-tetrahydroquinolin-6-yl)phenethyl)-2-(2-aminopyrimidin-5-yl)-7-methyl-4-morpholinothieno[3,2-d]pyrimidine-6-carboxamide], the concentration for 50% growth inhibition (GI50) lay within 100 to 500 nM.
With `CC(=O)N1c2ccc(-c3ccc(NC(=O)CNC(=O)c4sc5c(N6CCOCC6)nc(-c6cnc(N)nc6)nc5c4C)cc3)cc2CC[C@@H]1C` [Cpd 047, (S)-N-(2-((4-(1-acetyl-2-methyl-1,2,3,4-tetrahydroquinolin-6-yl)phenyl)amino)-2-oxoethyl)-2-(2-aminopyrimidin-5-yl)-7-methyl-4-morpholinothieno[3,2-d]pyrimidine-6-carboxamide] the figure was more than 500 nM; with `CC(=O)N1c2ccc(-c3ccc(NC(=O)CNC(=O)c4nc5c(N6CCOCC6)nc(-c6cnc(N)nc6)cn5c4C)cc3)cc2CC[C@@H]1C` [Cpd 048, (S)-N-(2-((4-(1-acetyl-2-methyl-1,2,3,4-tetrahydroquinolin-6-yl)phenyl)amino)-2-oxoethyl)-6-(2-aminopyrimidin-5-yl)-3-methyl-8-morpholinoimidazo[1,2-a]pyrazine-2-carboxamide], not above 100 nM.
With `CC(=O)N1c2ccc(-c3cccc(NC(=O)CNC(=O)c4sc5c(N6CCOCC6)nc(-c6cnc(N)nc6)nc5c4C)c3)cc2CC[C@@H]1C` [Cpd 049, (S)-N-(2-((3-(1-acetyl-2-methyl-1,2,3,4-tetrahydroquinolin-6-yl)phenyl)amino)-2-oxoethyl)-2-(2-aminopyrimidin-5-yl)-7-methyl-4-morpholinothieno[3,2-d]pyrimidine-6-carboxamide], the GI50 lay within 100 to 500 nM.
`CC(=O)N1c2ccc(-c3cccc(CCNC(=O)c4nc5c(N6CCOCC6)nc(-c6cnc(N)nc6)cn5c4C)c3)cc2CC[C@@H]1C` [Cpd 050, (S)-N-(3-(1-acetyl-2-methyl-1,2,3,4-tetrahydroquinolin-6-yl)phenethyl)-6-(2-aminopyrimidin-5-yl)-3-methyl-8-morpholinoimidazo[1,2-a]pyrazine-2-carboxamide] came in with a GI50 of 100 to 500 nM.
Molecule `CC(=O)N1c2ccc(-c3cccc(CCNC(=O)c4sc5c(N6CCOCC6)nc(-c6cnc(N)nc6)nc5c4C)c3)cc2CC[C@@H]1C` [Cpd 051, (S)-N-(3-(1-acetyl-2-methyl-1,2,3,4-tetrahydroquinolin-6-yl)phenethyl)-2-(2-aminopyrimidin-5-yl)-7-methyl-4-morpholinothieno[3,2-d]pyrimidine-6-carboxamide] yielded a 50% growth inhibitory concentration (GI50) of 100 to 500 nM.
Take `CC(=O)N1c2ccc(-c3cnn(C4CCN(Cc5sc6c(N7CCOCC7)nc(-c7cnc(N)nc7)nc6c5C)CC4)c3)cc2CC[C@@H]1C` [Cpd 052, (S)-1-(6-(1-(1-((2-(2-aminopyrimidin-5-yl)-7-methyl-4-morpholinothieno[3,2-d]pyrimidin-6-yl)methyl)piperidin-4-yl)-1H-pyrazol-4-yl)-2-methyl-3,4-dihydroquinolin-1(2H)-yl)ethan-1-one]: the GI50 was more than 500 nM.
In the case of `CC(=O)N1c2ccc(-c3cnn(C4CCN(C(=O)c5sc6c(N7CCOCC7)nc(-c7cnc(N)nc7)nc6c5C)CC4)c3)cc2CC[C@@H]1C` [Cpd 053, (S)-1-(6-(1-(1-(2-(2-aminopyrimidin-5-yl)-7-methyl-4-morpholinothieno[3,2-d]pyrimidine-6-carbonyl)piperidin-4-yl)-1H-pyrazol-4-yl)-2-methyl-3,4-dihydroquinolin-1(2H)-yl)ethan-1-one], the GI50 is not above 100 nM.
As to `CC(=O)N1c2ccc(-c3ccc(CNCc4sc5c(N6CCOCC6)nc(-c6cnc(N)nc6)nc5c4C)cc3)cc2CC[C@@H]1C` [Cpd 055, (S)-1-(6-(4-((((2-(2-aminopyrimidin-5-yl)-7-methyl-4-morpholinothieno[3,2-d]pyrimidin-6-yl)methyl)amino)methyl)phenyl)-2-methyl-3,4-dihydroquinolin-1(2H)-yl)ethan-1-one], the GI50 was more than 500 nM.
`CC(=O)N(Cc1ccc(-c2ccc3c(c2)CC[C@H](C)N3C(C)=O)cc1)Cc1sc2c(N3CCOCC3)nc(-c3cnc(N)nc3)nc2c1C` [Cpd 056, (S)-N-(4-(1-Acetyl-2-methyl-1,2,3,4-tetrahydroquinolin-6-yl)benzyl)-N-((2-(2-aminopy-rimidin-5-yl)-7-methyl-4-morpholinothieno[3,2-d]pyrimidin-6-yl)methyl)acetamide] returned a GI50 of 100 to 500 nM.
In turn, `CC(=O)N1c2ccc(-c3ccc(CNC(=O)c4cn5cc(-c6cnc(N)cc6C(F)(F)F)nc(N6CCOCC6)c5n4)cc3)cc2CC[C@@H]1C` [Cpd 057, (S)-N-(4-(1-Acetyl-2-methyl-1,2,3,4-tetrahydroquinolin-6-yl)benzyl)-6-(6-amino-4-(tri-fluoromethyl)pyridin-3-yl)-8-morpholinoimidazo[1,2-a]pyrazine-2-carboxamide] displayed a concentration for 50% growth inhibition (GI50) of more than 500 nM.
With `COc1ccc(-c2cn3cc(C(=O)NCc4ccc(-c5ccc6c(c5)CC[C@H](C)N6C(C)=O)cc4)nc3c(N3CCOCC3)n2)cn1` [Cpd 058, (S)-N-(4-(1-Acetyl-2-methyl-1,2,3,4-tetrahydroquinolin-6-yl)benzyl)-6-(6-methoxypyridin-3-yl)-8-morpholinoimidazo[1,2-a]pyrazine-2-carboxamide] the figure was 100 to 500 nM.

In general, GI50 refers to the concentration giving 50% growth inhibition. A lower GI50 goes with greater sensitivity of the cells.
